8 compounds from patent EP0345629A2, “Condensed diazepinones, process for their preparation and medicaments containing them” (Dr. Karl Thomae GmbH, priority 1988, dated 1989) can be followed below.

The test system of data set [1] is durch McN-A-343 verursachte Blutdruckanstieg (M,). Kind of data set: M1/M2 selectivity in the rat: inhibition of blood pressure rise caused by McN-A-343. The note with it: for ED50: iv, 5 min, rat, i.v., 5 min after injection, dose reducing the blood pressure rise after 0,3 mg/kg McN-A-343 i.v. (M1) by 50 %, read-out: -log ED50 Blutdruck (converted). In kind it is in vivo, männliche THOM-Ratten. From the text: (§1) 1. M1-/M2-Selektivität an der Ratte
(§2) Die Dosis der Substanzen, die entweder die vagale Bradykardie (M2) oder den Blutdruckanstieg (M,) um 50% verminderte, wurde graphisch ermittelt. Ergebnisse siehe Tabelle 11.

Data set [2] relates to Acetylcholinwirkung auf Bronchien. The data set can be described thus: Inhibition of the acetylcholine effect on bronchi (expiratory resistance, Konzett-Rößler) in the anaesthetised guinea pig. In kind it is in vivo, Meerschweinchen. Particulars: for ED50: Cavia porcellus, 5 min, anaesthetised guinea pig, 10 µg/kg Acetylcholin 5 min after test substance, expiratory resistance, read-out: -log ED50 Bronchien (converted). As to the method: (§3) 3. Hemmung der Acetylcholinwirkung auf Blase, Bronchien und Herzfrequenz des Meerschweinchens
(§4) Am narkotisierten Meerschweinchen wurden 5 Minuten nach Gabe der Prüfsubstanz 10 µg/kg Acetylcholin sowohl intravenös als auch gleichzeitig intraarteriell injiziert. Dabei wurde die Herzfrequenz durch extrakorporale Ableitung des EKG, der Ausatemwiderstand nach Konzett-Rößler und die Kontraktion der freigelegten Harnblase direkt registriert. Für die Hemmung der Acetylcholinwirkung an den untersuchten Organen wurden Dosis-Wirkungskurven aufgenommen und daraus -log EDso-Werte bestimmt. Ergebnisse siehe Tabelle III.

The test system of the next data set is vagale Bradykardie (M2). The data set can be described thus: M1/M2 selectivity in the rat: inhibition of bradycardia evoked by electrical vagus stimulation. In kind it is in vivo, männliche THOM-Ratten. Particulars: iv; for ED50: 5 min.
Text: as §1, §2

Data set [3] relates to Acetylcholinwirkung auf Herzfrequenz. Kind of data set: Inhibition of the acetylcholine effect on heart rate in the anaesthetised guinea pig. In kind it is in vivo, Meerschweinchen. Particulars: for ED50: Cavia porcellus, 5 min, anaesthetised guinea pig, 10 µg/kg Acetylcholin 5 min after test substance, heart rate (ECG). As to the method: as §3, §4
For data set [4], the system named is Acetylcholinwirkung auf Blase. The data set can be described thus: Inhibition of the acetylcholine effect on bladder contraction in the anaesthetised guinea pig. The format is in vivo, Meerschweinchen. The note with it: for ED50: Cavia porcellus, 5 min, anaesthetised guinea pig, 10 µg/kg Acetylcholin 5 min after test substance, bladder contraction, read-out: -log ED50 Blase (converted). As to the method:
as §3, §4

Data set [5] in a line: Solubility in water (remark in the synthesis example). The format is physicochemical.
In another data set the test system is Speichelsekretion. The data set can be described thus: Inhibition of pilocarpine-induced salivary secretion in the rat. The format is in vivo, männliche THOM-Ratten. The note with it: iv; urethane-anaesthetised rat, i.v.; 2 mg/kg Pilocarpin s.c.; dose reducing saliva volume by 50 %; read-out: -log ED50 Salivationshemmung (converted). The procedure:
2. Speichelsekretionshemmende Wirkung an der Ratte
Nach Lavy und Mulder (Arch. int. Pharmacodyn. 178, 437-445, (1969)) erhielten mit 1,2 g/kg Urethan narkotisierte männliche THOM-Ratten steigende Dosen der Substanz i.v.. Die Speichelsekretion wurde durch s.c. Gabe von 2 mg/kg Pilocarpin ausgelöst. Der Speichel wurde mit Fließpapier aufgesaugt, die von ihm eingenommene Fläche alle 5 Minuten planimetrisch bestimmt. Die Dosis der Substanz, die das Speichelvolumen um 50% verminderte, wurde graphisch ermittelt. Ergebnisse siehe Tabelle 11.

The mark [6] stands for this setting: rat, i.v., 5 min after injection, dose reducing vagal bradycardia (M2) by 50 %, read-out: -log ED50 Herz (converted).

Read-outs that look alike come from different tables or passages of the source.

`CN1C2CCC1CC(OC(=O)C(CO)c1ccccc1)C2` (racemic) [F, Atropin, reference compound]: the “-log ED50 Blutdruck” value in data set [1] (in vivo) was 7,34 Mkg^-1. Also, in data set [2] (in vivo), the “-log ED50 Bronchien” value is 7,96 Molkg^-1. For the same compound, the “-log ED50 Herz” value is reported as 7,94 Mkg^-1 with vagale Bradykardie (M2) (in vivo) and 7,70 Molkg^-1 in data set [3] (in vivo). Also, the “-log ED50 Blase” value in data set [4] (in vivo) was 7,03 Molkg^-1.
As for `CN(C)CCC1CCCCN1CCCC(=O)N1c2ccccc2C(=O)Nc2cccnc21` (stereo not drawn) [Beispiel 4, 5,11-Dihydro-11-[4-[2-[2-(dimethylamino)ethyl]-1-piperidinyl]-1-oxobutyl]-6H-pyrido[2,3-b][1,4]benzodiazepin-6-on], the “Löslichkeit in Wasser” value in data set [5] is reported as “löslich in Wasser”.
`O=C1Nc2cccnc2N(C(=O)CCCN2CCCCC2CN2CCCC2)c2ccccc21` (stereo not drawn) [C, 5, 11-Dihydro-11-[4-[2-[(1-pyrrolidinyl)methyl]-1-piperidinyl]-1-oxobutyl]-6H-pyrido[2,3-b][1,4]-benzodiazepin-6-on]: the ED50 (as a rule, the dose at which the effect has come halfway, by size or by number of responders) in data set [1] was 0.219 µmol/kg; in data set [2], 0.0513 µmol/kg; with vagale Bradykardie (M2) (setting [6]), 0.0468 µmol/kg; with Speichelsekretion, 1.66 µmol/kg; in data set [3] it was 0.0275 µmol/kg; in data set [4] it was 0.316 µmol/kg.
Take `CCN(CC)CC1COCCN1CCCC(=O)N1c2ccccc2C(=O)Nc2cccnc21` (stereo not drawn) [A, 11-[4-[3-[(Diethylamino)methyl]-4-morpholinyl]-1-oxobutyl]-5,11-dihydro-6H-pyrido[2,3-b][1,4]-benzodiazepin-6-on]: the 50% effective dose (ED50) was 0.55 µmol/kg in data set [1]; 0.0708 µmol/kg in data set [2]; 0.0513 µmol/kg in the data set on vagale Bradykardie (M2) (setting [6]); 1.1 µmol/kg with Speichelsekretion; 0.0282 µmol/kg in data set [3]; 1 µmol/kg in data set [4]. Also, in data set [5], the “Löslichkeit in Wasser” value is listed as “leicht löslich in Wasser”.
As for `CN1CCN(CC(=O)N2c3ccccc3C(=O)Nc3cccnc32)CC1` [E, 5,11-Dihydro-11-[(4-methyl-1-piperazinyl)acetyl]-6H-pyrido[2,3-b][1,4]benzodiazepin-6-on, reference compound], the median effective dose (ED50) in the data set on Speichelsekretion was 0.603 µmol/kg.
On to `CCN(CC)CC1CCCCN1CCCC(=O)N1c2ccc(Br)cc2C(=O)Nc2cccnc21` (stereo not drawn) [Beispiel 7, 8-Brom-11-[4-[2-[(diethylamirio)methyl]-1-piperidinyl]-1-oxobutyl]-5,11-dihydro-6H-pyrido[2,3-b][1,4]-benzodiazepin-6-on], for which the “Löslichkeit in Wasser” value in data set [5] was “in Wasser schwer lösliches”.
On to `CCN(CC)CC1CCCCN1CCCC(=O)N1c2cc(C)ccc2C(=O)Nc2cccnc21` (stereo not drawn) [B, 11-[4-[2-[(Diethylamino)methyl]-1-piperidinyl]-1-oxobutyl]-5,11-dihydro-9-methyl-6H-pyrido[2,3-b][1,4]benzodiazepin-6-on], for which the ED50 is 0.501 µmol/kg in data set [1]; 0.151 µmol/kg in data set [2]; 0.0617 µmol/kg in the data set on vagale Bradykardie (M2) (setting [6]); 1.12 µmol/kg in the data set on Speichelsekretion; 0.0708 µmol/kg in data set [3]; 0.759 µmol/kg in data set [4].
`CCN(CC)CC1CCCCN1CC(=O)N1c2ccccc2C(=O)Nc2cccnc21` (stereo not drawn) [D, 11-[[2-[(Diethylamino)methyl]-1-piperidinyl]acetyl]-5,11-dihydro-6H-pyrido[2,3-b][1,4]-benzodiazepin-6-on, reference compound]: the ED50 in data set [1] was 2.34 µmol/kg; with vagale Bradykardie (M2) (Rattus norvegicus, read-out: -log ED50 Herz) it was 0.38 µmol/kg; in the data set on Speichelsekretion it was 10 µmol/kg.
